According to patent publication US6180669A, “Method for treatment of dermatological disorders” (priority 1999, dated 2001):
“Also recorded” adds a separate entry of the source. Read-outs that look alike come from different tables or passages of the source.

Experiments:
human keratinocytes = assay: Cell proliferation assay; assay type: cell-based; details: for IC50: Homo sapiens; for potency in inhibiting cell proliferation (in words): in vitro, keratinocytes
Protocol: Modulation of keratinocyte proliferation.
Cell proliferation assay.
50,000 human keratinocytes from secondary culture were seeded into 24 well plates, in 1 ml DMEM-F12 medium (Green H. (1978) Cell 15:801-805) with growth factors and 10% Fetal Calf Serum. The cells were incubated at 37° C. in 5% CO2 until 30-40% confluency was reached and then the various test materials, dissolved in ethanol, were added in volumes of 0.1-20 μl, to final volume of 0.5 ml. The same volumes of ethanol were added to control cultures, for comparative values of ethanol cytotoxicity. No apparent cytotoxicity was found up to 40 μl ml ethanol. The medium was replaced with fresh medium prior to addition of the test materials. The cultures were further incubated for 3 days at 37° C. and 5% CO2 and then washed with phosphate buffered saline (PBS). Cell numbers were determined using two methods: 1) trypsinization, followed by cell counting; and 2) fixation of the culture with p-formaldehyde 2% in PBS and methylene blue staining, followed by extraction of color and optical density measurement at 650 nm. Both methods were found in good correlation, so that 1 OD unit corresponded to 1,000,000 cells. IC50, i.e., the concentration that caused 50% inhibition of cell proliferation for each of the test materials is presented in Table 1.

in vitro = details: human, keratinocytes
Protocol: The direct effect of the compounds of the invention on the proliferation of human keratinocytes was assessed in vitro using a keratinocyte cell line.
Modulation of keratinocyte proliferation. The effect of di(ethyl salycilate)azelate and di-retinyl azelate on cell proliferation and cell viability was tested in vitro using human keratinocyte culture system.
Keratinocyte cells, as above, were allowed to proliferate in medium, without the test materials, up to 100% confluency, with one exchange of medium during growth. Confluent cultures were incubated with increasing concentrations of the test materials in ethanol for three days at 37° C. and 5% CO2. At the end of the incubation period the cultures were washed with PBS and measured for remaining attached cells using the above described methods.

acne = details: 20% preparation, twice daily; Fitton and Goa; cited from earlier work
sebaceous glands = details: topical, literature, cited from earlier work
keratinocytes = details: Passi et al.; cited from earlier work
[1] = test system: reduction of testosterone to dihydrotestosterone; details: literature; cited from earlier work
[2] = test system: comedones, rabbit ear acne model; assay: Efficacy in the rabbit ear acne model (comedolytic effect); assay type: in vivo
Protocol: See, Lee, et al. Kor. J. Dermatol. 28(5):543-549 (1990).
Efficacy of di(ethyl salicylate)azelate (10%) in the rabbit ear acne model. Three mature male albino rabbits were treated as follows. The external ear canals on both ears were treated once daily for five weekdays for three weeks with 1% crude coal tar in Hydrophilic Ointment USP. Then one ear was treated with antiacne lotion of Example 4 once daily for five weekdays for three weeks while the opposite ear served as an untreated control. Excision biopsies were taken from both sides at the end of three weeks of treatment. […] These were judged to be moderate examples of comedones with distortion of the follicular infundibulum by dense horn.

skin of a human subject = assay: Human skin irritation test; assay type: in vivo; details: 48 h application, 0.1 ml; observed upon removal and 1, 24, 48 h later; ester 20%; mixture 7.5% azelaic acid + 11% salicylic acid
Protocol: Human skin irritation test. The following lotions (0.1 ml) were applied to the skin of a human subject for 48 hours, using standard skin irritation test chambers (0.64 sq. cm.):
(1) 20% di(ethyl salicylate)azelate (400 mmole/ml), dissolved in PEG-400/ethanol 1:1;
(2) mixture of 7.5% azelaic acid (400 mmole/ml) and 11% salicylic acid (800 mmole/ml), dissolved in PEG-400/ethanol 1:1; and
(3) PEG-400/ethanol 1:1 (placebo).

skin of rabbits = assay: Acute dermal toxicity/irritation test (modified Draise); assay type: in vivo, rabbit; details: 10% and 20%, 0.5 ml, 24 h application, observed 1, 24 and 72 h after removal
Protocol: These findings emphasize a distinct advantage of di(ethyl salicylate)azelate over its parent components.
Acute dermal toxicity/irritation test. The purpose of this study was to evaluate the acute potential dermal irritation effect on skin following the topical application of di(ethyl salicylate) azelate, in rabbits. This test is a modified version of the original Draise method, as described in OECD guidelines. 0.5 ml of either di(ethyl salicylate)azelate (10% or 20%, dissolved in PEG-400/ethanol 1:1) or the vehicle alone were applied to the skin of three rabbits for 24 hours. Rabbits were examined for signs of skin irritation 1, 24 and 72 hours after the removal of the test solutions. […] Based on the current protocol it was concluded that di(ethyl salicylate) azelate is a non-irritant agent.

[3] = test system: skin oiliness of forehead; assay: Sebolytic effect (skin oiliness of forehead, Skin Tester); assay type: in vivo, human; details: lotion of Example 5, twice daily, 14 days; prior to treatment 223 units
Protocol: Following fourteen days of topical treatment, the skin oiliness of the forehead of a human volunteer, tested using a photometric instrument was reduced from 223 units (resembling "oily skin") to 205 units (normal skin value).
Sebolytic effect of di(ethyl salicylate)azelate. […] Skin oiliness was tested using "Skin Tester, Model STC20" (IMS Ltd., Haifa, Israel) prior to treatment and 14 days thereafter. Prior to treatment, the sebum value was 223 units, typical of oily skin. The sebum value after two weeks of treatment was 205 units, corresponding to normal skin.

[4] = test system: culicoides hypersensitivity; assay: Effect on culicoides hypersensitivity in horses; assay type: in vivo, horse; details: 5% alcoholic solution, topically twice daily for two weeks
Protocol: Prior to treatment, the horses had typical occurrence of the disease, including localized dermatitis affecting the mane and poll and the root of the tail. FIG. 1 is a photograph of the mane area of a horse afflicted by culicoides hypersensitivity. […] The skin at the affected areas looked hairless, ridged and scaly. The shoulder area and hind quarters were also affected. The horses were treated topically with a 5% alcoholic solution of di(ethyl salicylate) azelate, twice daily for two weeks.
The effect of di(ethyl salicylate) azelate on culicoides hypersensitivity was tested in two horses with colicoides hypersensitivity. Prior to treatment, both horses had typical occurrence of the disease, including localized dermatitis affecting the mane and poll and the root of the tail. The shoulder area and hind quarters were also affected. The skin at the affected areas looked hairless, ridged and scaly. The horses were treated topically with a 5% alcoholic solution of di(ethyl salicylate)azelate, twice daily for two weeks. […] As clearly seen in the pictures, hair seemed to regrow and the skin looked healthy. This improvement persisted throughout 14 days of treatment and observation.

[5] = test system: chin acne; furunculosis (eczema); assay: Anti-acne and anti-inflammatory effect in cats (chin acne, furunculosis); assay type: in vivo, cat; details: 5% alcoholic solution, twice daily for 14 days
Protocol: The compounds of the present invention have been shown in animals to alleviate the symptoms of acne. Four cats with persistant chin acne were treated twice daily for 14 days with 5% alcoholic solution of di(ethyl salicylate) azelate. […] The skin lesions disappeared and the bald areas were covered with new hair.
Anti-acne and anti-inflammatory effect of di(ethyl salicylate) azelate. Four cats were admitted to the veterinary clinic with skin lesions identified as chin acne. One additional cat had localized furunculosis (eczema) on the chin. The area of the skin lesions was 1-4 cm^2 at baseline. All animals were previously treated with either benzoyl peroxide or topical steroids with no response. Cats were treated twice daily for 14 days with a 5% alcoholic solution of di(ethyl salicylate) azelate.

[6] = Keratinocyte, 72 h, 3 days incubation, 50% inhibition of cell proliferation, Table 1, read-out: IC50 (inhibitory concentration)
[7] = keratinocyte cell line, read-out: inhibitory concentration, cell proliferation
[8] = cytotoxic concentrations higher than inhibitory concentrations
[9] = listed as di(ethyl salicylate) azelate

O=C(O)CCCCCCCC(=O)O [Azelaic acid, reference compound]
IC50 (human keratinocytes; [6]): 1500 µM | IC50 (human keratinocytes; [7]): 1000 µM | CC50 at 72 h (in vitro): 4000 µM | selectivity ratio (in vitro; Safety factor (CD50/ID50)): 2.6 | selectivity ratio (in vitro; cytotoxic concentration, times higher than inhibitory concentration): 2.6 | time of topical application until effective in acne (acne): 3-6 months | skin oiliness / sebum composition, sebum excretion rate, size of sebaceous glands (sebaceous glands): can not alter skin oiliness | skin oiliness / sebum composition, sebum excretion rate, size of sebaceous glands (sebaceous glands; listed as AZA): failed to induce specific changes in sebum composition, sebum excretion rate and the size of sebaceous glands | effect on keratinocytes (keratinocytes): antiproliferative effects on keratinocytes | inhibition of testosterone reduction to dihydrotestosterone [1]: competitive inhibitor of the reduction of testosterone to dihydrotestosterone

CC1=C(/C=C/C(C)=C/C=C/C(C)=C/COC(=O)CCCCCCCC(=O)OC/C=C(C)/C=C/C=C(C)/C=C/C2=C(C)CCCC2(C)C)C(C)(C)CCC1 [Di-retinyl azelate, di-retinyl azelate]
IC50 (human keratinocytes; [6]): 15 µM | IC50 (human keratinocytes; [7]): 15 µM | potency in inhibiting cell proliferation (in words) (human keratinocytes): significantly more potent than azelaic acid and salicylic acid | CC50 (in vitro): 100 µM | CC50 at 72 h (in vitro): 100 µM | selectivity ratio (in vitro; Safety factor (CD50/ID50)): 6.6 | selectivity ratio (in vitro; [8]): 6.6 to 10 | selectivity ratio (in vitro; therapeutic safety margin): 6.6 to 10

O=C(O)c1ccccc1O [Salicylic acid, o-hydroxybenzoic acid, reference compound]
IC50 (human keratinocytes; Keratinocyte, 72 h, read-out: IC50 (inhibitory concentration)): 1600 µM | CC50 at 72 h (in vitro): 6000 µM | selectivity ratio (in vitro): 3.8

CCOC(=O)c1ccccc1OC(=O)CCCCCCCC(=O)Oc1ccccc1C(=O)OCC [di(ethyl salicylate)azelate, Nonanedioic acid, di-[(2'-ethoxycarbonyl)phenyl]ester]
IC50 (human keratinocytes; [6]): 300 µM | IC50 (human keratinocytes; [7]): 300 µM | potency in inhibiting cell proliferation (in words) (human keratinocytes): significantly more potent than azelaic acid and salicylic acid | CC50 (in vitro): 3 µM | CC50 at 72 h (in vitro): 3000 µM | selectivity ratio (in vitro; Safety factor (CD50/ID50)): 10 | selectivity ratio (in vitro; [8]): 6.6 to 10 | selectivity ratio (in vitro; therapeutic safety margin): 6.6 to 10 | reduction of comedones ([2]; 10% topical, once daily five weekdays for three weeks): effective in the reduction of comedones; also recorded: All three treated ears showed a marked reduction of the comedones | comedolytic effect compared with 0.025% Retin A Cream ([2]; 10% topical, rabbit ear): comparable to the effect of 0.025% Retin A Cream | comedolytic effect compared with 20% azelaic acid preparation of the prior art ([2]; 10% topical, rabbit ear, comparison with Lee et al.): superior to a 20% (1,060 mmole/ml) azelaic acid preparation | inflammatory response in treated area ([2]; topical, rabbit ear, Retin A at 0.025%): did not induce any inflammatory response in the treated area; also recorded: no inflammatory reaction | skin reaction / irritation (skin of a human subject): did not irritate the skin; also recorded: no sign of any skin reaction | signs of skin irritation (skin of rabbits): no signs of irritation | signs of skin irritation (skin of rabbits; [9]): no signs of skin irritation were observed | sebum value (skin oiliness) after treatment [3]: 205 units | improvement of lesions and hair growth [4]: After one week of treatment, there was a marked improvement in the appearance of all treated lesions; also recorded: hair seemed to regrow and the skin looked healthy. This improvement persisted throughout 14 days of treatment and observation | improvement of lesions and hair growth [4, 9]: After one week of treatment, there was a marked improvement in the appearance of all treated lesions. Hair regrew and the skin looked healthy | skin irritation in treated cats [5]: No skin irritation was noticed in any of the treated cats | response of chin acne ([5]; four cats): Three of the four cats responded to treatment within 10 days; also recorded: Three of the four cats responded to treatment within ten days | response of furunculosis (eczema) ([5]; one cat): responded positively; also recorded: successfully treated
